Data reported in article PMC11277145, “Wrinkle-Improving Effect of Novel Peptide That Binds to Nicotinic Acetylcholine Receptor” (International Journal of Molecular Sciences, 2024).
Where no end group is shown, it is not given here.

Key:
[1] = test system: human cornea model (MCTT HCE^TM); experiment: Eye irritation test, human cornea model (MCTT HCE); format: cell-based; conditions: for Cell survival (%Control): 10 min exposure, 18 h post-culture, WST-1; for Average absorption: mean of N1 and N2; for Absorption (N1): replicate N1, WST-1, 450 nm; for Absorption (N2): replicate N2, WST-1, 450 nm
Experimental: To evaluate the eye irritation potential of the peptide, an in vitro experimental model recognized by the OECD as an alternative animal evaluation method, the human cornea model (MCTT HCE^TM), was used. The experiment was conducted according to the standard experimental method provided by the manufacturer, Biosolution (Seoul, Republic of Korea). First, before the experiment, the color interference of the test material was checked, and to begin the experiment, MCTT HCE^TM was incubated for 22 h at 5% CO2 and 37 °C. Next, 40 μL of the peptide was applied to the top of the MCTT HCE^TM and left to react for 10 min. Afterwards, the peptide was removed using DPBS, and MCTT HCE^TM was transferred to a new medium and cultured for 18 h at 5% CO2 and 37 °C. After the culture was completed, 200 μL/well of WST-1 solution diluted at a ratio of 1:25 was added to a new plate, MCTT HCE^TM was transferred thereon, and 100 μL of WST-1 solution was treated inside.

nAChR subunit α1 = target: T1, nAChR subunit α1 (Homo sapiens, UniProt P02708); experiment: SPR binding affinity to immobilized nAChR subunit α1
T1 construct: purchased MyBioSource MBS963713
Excerpt: The ligand used recombinant human acetylcholine receptor subunit α1, Cat. No. MBS963713 (MyBioSource, San Diego, CA, USA), and SYN®-AKE used dipeptide diaminobutyroyl benzylamide (Cayman Chemical, Ann Arbor, MI, USA). All peptides used in this study were synthesized and supplied by Anygen (Gwangju, Republic of Korea). Phosphate-buffered saline (PBS), Tween 20, polyethylene glycol (weight-averaged molecular weight (MW) = 8000), LB agar, and bovine serum albumin (BSA) were purchased from Sigma-Aldrich (St. Louis, MO, USA). All reagents and cell culture media were purchased from WELGENE (Gyeongsan-si, Republic of Korea). The INCI name for the novel peptide is Palmitoyl Hexapeptide-93. It was synthesized by Incospharm (Daejeon, Republic of Korea), and clinical trials were conducted with a content of 500 ppm (w/v).
The SPR analysis was performed using a BIACORE 3000 (GE healthcare, Chicago, IL, USA). The nAChR subunit α1 was immobilized on a CM5 sensor chip by injecting the protein diluted in PBS (0.2 M phosphate buffer, 0.027 M KCl, 1.37 M NaCl, pH 7.4) at a concentration of 0.35 mg/mL at a flow rate of 5 μL min^−1. After, 5 μM peptide was injected into running buffer (20 mM Tris, pH 7) and its interaction with nAChR subunit α1 was measured at a flow rate of 30 μL min^−1. For kinetic experiments, peptides diluted in running buffer at concentrations ranging from […] to 200, 400, 600, 1000, and 1200 nM were injected at a flow rate of 30 μL min^−1 over the immobilized nAChR subunit α1. The association and dissociation kinetic rate constants (ka and kd) and the equilibrium […], KD, were calculated using BIAevaluation 3.1 software.

dermal fibroblasts = experiment: In vitro cell viability (MTT) assay; format: cell-based, human; conditions: 24 h
Experimental: (§1) TE671 rhabdomyosarcoma cell line was purchased from Korea Cell Line Bank (Seoul, Republic of Korea). Dermal fibroblasts (Hs68) were purchased from American Type Culture Collection. Cells were cultured in Dulbecco’s Modified Eagle’s medium (DMEM) and medium containing 10% fetal bovine serum (FBS), 1% penicillin-streptomycin at 37 °C, and up to 5% CO2. Human skin keratinocytes (HEKn) were purchased from Thermo Fisher Scientific (Waltham, MA, USA) and cultured using keratinocyte growth medium, keratinocyte-SFM supplemented with epidermal growth factor (EGF) and bovine pituitary extract (BPE) at 37 °C, and up to 5% CO2.
The in vitro cytotoxicity of the novel peptide on cells was assessed using the MTT [(3-(4,5-dimethylthiazol-2-yl)-2,5-diphenyltetrazolium bromide] cell viability assay. Briefly, dermal fibroblasts were cultured in 24-well plates at a density of 1 × 10^5 cells/well for 18 h. After the medium was removed, the sample diluted in FBS-free medium was added and cultured for 24 h. Then, after the medium was removed, MTT solution was added at a concentration of […] and left to react for 3 h. Unreacted MTT was removed, 100 μL of DMSO was added to dissolve the formed reaction product, and the absorbance at 540 nm was measured and evaluated using an ELISA reader.

human skin = experiment: Human skin irritation patch test; format: in vivo
Experimental: The skin irritation test was conducted at CRA Korea Co., Ltd. in the Republic of Korea, with the approval serial number CRA21-HIPTRP1001. The patch used was the IQ Ultra Chamber (Chemotechnique Diagnostics, Vellinge, Sweden). The human skin primary irritation test was completed, with all 31 subjects participating until the end of the study. The test area for the product was the back (excluding the spinal area). The patch was applied for 24 h and then removed. The first evaluation was conducted 30 min after patch removal while waiting for the transient erythema to disappear due to removal, and the second evaluation was conducted 24 h after patch removal. The irritation criterion used a measurement evaluation method designed by Frosch and Kligman by applying the reading standards of the International Contact Dermatitis Research Group (ICDRG).

[2] = test system: muscle nAChR (TE671 cells expressing nAChRs); experiment: In vitro intracellular nicotine response assay; format: cell-based, human; conditions: 400 μM nicotine; for nicotine response: Fura-2-AM 340/380 nm, positive control, mean of three repeated measurements
Experimental: as §1
TE671 cells were cultured in DMEM and medium containing 10% FBS, 1% penicillin-streptomycin at 37 °C, and up to 5% CO2. An 18 mm coverslip was placed on a 12-well cell culture plate, cultured cells were removed with trypsin, and 1 mL was dispensed into each well to make 2 × 10^4 cells/well, followed by culturing for 4 days. The coverslip with the cultured cells was transferred to a new 12-well plate, mixed with 997 μL of HBSS buffer and 3 μL of Fura-2-AM (Invitrogen, Waltham, MA, USA), and incubated for 15 min. After incubation, the remaining Fura-2-AM was removed by washing three times with HBSS buffer, and 1 mL of HBSS buffer was additionally dispensed. After mounting the coverslip in the chamber (Live Cell Instrument, Namyangju-si, Republic of Korea), 500 μL of HBSS buffer was dispensed, and the peptide and nicotine samples to be tested were adjusted according to the concentration. Then, 10 to 20 cells were selected and captured alternately at 340 nm and 380 nm wavelengths at 500 ms intervals through a fluorescence microscope (DMI3000 B, Leica Microsystems, Wetzlar, Germany). The fluorescence ratio at 340/380 nm was calculated using the LAS X program.

nAChRs = conditions: ref [16]; read-out: IC50 (binds to nAChRs and inhibits the action of ACh); cited from earlier work
Excerpt: Muscle contraction is induced by acetylcholine (ACh), a neurotransmitter released from nerve cells. ACh is released into the space between muscles and nerves when synaptic vesicles fuse with the cell membrane through the action of the SNARE (Soluble N-ethylmaleimide-sensitive factor attachment protein receptor) complex within nerve cells. Released ACh binds to nAChR or muscarinic acetylcholine receptor (mAChR) on the muscle cell surface to induce muscle contraction. Facial wrinkles are formed by muscle contraction through the binding of muscle nAChRs (subtypes α1, β1, δ, γ, and ...

[3] = methyl acetate (no concentration)
[4] = 0.1ppm, 30 min after patch removal, 31 subjects
[5] = 0.1ppm, 24 hours after patch removal, 31 subjects
[6] = 1ppm, 30 min after patch removal, 31 subjects
[7] = 1ppm, 24 hours after patch removal, 31 subjects
[8] = 10ppm, 30 min after patch removal, 31 subjects
[9] = 10ppm, 24 hours after patch removal, 31 subjects
[10] = 100ppm, 30 min after patch removal, 31 subjects
[11] = 100ppm, 24 hours after patch removal, 31 subjects

T1 sequence (P02708 21-457): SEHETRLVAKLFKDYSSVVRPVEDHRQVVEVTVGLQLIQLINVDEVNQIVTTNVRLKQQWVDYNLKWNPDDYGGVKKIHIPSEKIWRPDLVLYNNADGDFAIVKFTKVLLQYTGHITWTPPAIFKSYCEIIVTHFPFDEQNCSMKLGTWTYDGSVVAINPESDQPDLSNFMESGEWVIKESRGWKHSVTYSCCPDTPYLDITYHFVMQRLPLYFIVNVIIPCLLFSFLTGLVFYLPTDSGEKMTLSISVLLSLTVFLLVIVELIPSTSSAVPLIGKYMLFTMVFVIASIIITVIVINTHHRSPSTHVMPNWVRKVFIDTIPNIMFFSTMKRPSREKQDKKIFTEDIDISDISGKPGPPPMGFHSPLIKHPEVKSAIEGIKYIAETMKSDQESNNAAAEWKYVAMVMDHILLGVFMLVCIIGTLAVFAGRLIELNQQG

Compound: COC(C)=O [Methyl acetate, reference compound]
- Average absorption, second value [1, 3]: 0.066
- eye irritation judgement (Standard) [1, 3]: Irritant
- Cell survival (%Control) [1, 3]: 4.70%
- Average absorption [1, 3]: 0.12
- Absorption (N1) [1, 3]: 0.102
- Absorption (N2) [1, 3]: 0.138

Compound: RRGVRR [Peptide 289]
- kon (nAChR subunit α1; SPR, 200-1200 nM, 20 mM Tris pH 7, 30 μL/min, read-out: ka): 14900 M⁻¹ s⁻¹
- Kd (nAChR subunit α1; binding affinity to nAChR subunit α1, bound given in abstract, SPR): < 1000 nM
- Kd (nAChR subunit α1; equilibrium dissociation constant (KD), SPR, 200-1200 nM, 20 mM Tris pH 7, BIAevaluation 3.1): 609 nM
- koff (nAChR subunit α1; pH 7, read-out: dissociation rate constant (kd)): 0.00906 s⁻¹
- cytotoxicity (dermal fibroblasts; 0.1 ppm to 100 ppm, dermal fibroblasts, 540 nm): no toxicity
- cytotoxicity (dermal fibroblasts; up to 100 μg/mL, fibroblasts): non-cytotoxic
- skin irritation judgement (human skin; 0.1ppm): No irritation
- skin reactivity score (human skin; 0.1 ppm to 100 ppm, 24 h patch, back, 31 subjects): 0.0 ± 0.00
- skin irritation (human skin; 0.1 ppm to 100 ppm, Frosch and Kligman and COLIPA criteria, 31 subjects): non-irritation
- Average response (%) (human skin; 0.1ppm, 31 subjects): 0.0±0.00%
- subjects with 1+ reaction (human skin; [4]): 0
- subjects with 2+ reaction (human skin; [4]): 0
- subjects with 3+ reaction (human skin; [4]): 0
- subjects with ± reaction (human skin; [4]): 0
- subjects with 1+ reaction (human skin; [5]): 0
- subjects with 2+ reaction (human skin; [5]): 0
- subjects with 3+ reaction (human skin; [5]): 0
- subjects with ± reaction (human skin; [5]): 0
- skin irritation judgement (human skin; 1ppm): No irritation
- Average response (%) (human skin; 1ppm, 31 subjects): 0.0±0.00%
- subjects with 1+ reaction (human skin; [6]): 0
- subjects with 2+ reaction (human skin; [6]): 0
- subjects with 3+ reaction (human skin; [6]): 0
- subjects with ± reaction (human skin; [6]): 0
- subjects with 1+ reaction (human skin; [7]): 0
- subjects with 2+ reaction (human skin; [7]): 0
- subjects with 3+ reaction (human skin; [7]): 0
- subjects with ± reaction (human skin; [7]): 0
- skin irritation judgement (human skin; 10ppm): No irritation
- Average response (%) (human skin; 10ppm, 31 subjects): 0.0±0.00%
- subjects with 1+ reaction (human skin; [8]): 0
- subjects with 2+ reaction (human skin; [8]): 0
- subjects with 3+ reaction (human skin; [8]): 0
- subjects with ± reaction (human skin; [8]): 0
- subjects with 1+ reaction (human skin; [9]): 0
- subjects with 2+ reaction (human skin; [9]): 0
- subjects with 3+ reaction (human skin; [9]): 0
- subjects with ± reaction (human skin; [9]): 0
- skin irritation judgement (human skin; 100ppm): No irritation
- Average response (%) (human skin; 100ppm, 31 subjects): 0.0±0.00%
- subjects with 1+ reaction (human skin; [10]): 0
- subjects with 2+ reaction (human skin; [10]): 0
- subjects with 3+ reaction (human skin; [10]): 0
- subjects with ± reaction (human skin; [10]): 0
- subjects with 1+ reaction (human skin; [11]): 0
- subjects with 2+ reaction (human skin; [11]): 0
- subjects with 3+ reaction (human skin; [11]): 0
- subjects with ± reaction (human skin; [11]): 0
- Average absorption, second value ([1]; 0.1ppm): 1.469
- eye irritation ([1]; 0.1 ppm to 100 ppm, MCTT HCE): non-irritating
- Cell survival (%Control) ([1]; 0.1ppm): 105.30%
- Average absorption ([1]; 0.1ppm): 1.523
- Absorption (N1) ([1]; 0.1ppm): 1.461
- Absorption (N2) ([1]; 0.1ppm): 1.585
- Average absorption, second value ([1]; 1ppm): 1.553
- Cell survival (%Control) ([1]; 1ppm): 111.30%
- Average absorption ([1]; 1ppm): 1.607
- Absorption (N1) ([1]; 1ppm): 1.558
- Absorption (N2) ([1]; 1ppm): 1.656
- Average absorption, second value ([1]; 10ppm): 1.47
- Cell survival (%Control) ([1]; 10ppm): 105.30%
- Average absorption ([1]; 10ppm): 1.524
- Absorption (N1) ([1]; 10ppm): 1.464
- Absorption (N2) ([1]; 10ppm): 1.583
- Average absorption, second value ([1]; 100ppm): 1.456
- Cell survival (%Control) ([1]; 100ppm): 104.30%
- Average absorption ([1]; 100ppm): 1.51
- Absorption (N1) ([1]; 100ppm): 1.563
- Absorption (N2) ([1]; 100ppm): 1.456

Compound: dipeptide diaminobutyroyl benzylamide [SYN®-AKE]
- nicotine response ([2]; 100 μM): 98%
- nicotine response ([2]; 250 μM): 52.5%
- concentration required to inhibit the nicotinic response [2]: 500 µM
- nicotine response ([2]; 500 μM): 3.5%
- IC50 (nAChRs): 180000 nM
